Legend:
[1] = Solubility classification of probe molecule in solvent; conditions: ACQ probe molecule is CUR; label = solvent
[2] = cited from earlier work; for Solvent solubility in water: classified with reference to solvent data in Pub Chem; for Volatility/Boiling point / Flash point / Viscosity: solvent
[3] = Hansen solubility parameters (HSP), δ difference and HSP distance Ra
[4] = document value; cited from earlier work
[5] = HSP distance between solvent and curcumin (CUR)
[6] = total δ of solvent minus total δ of curcumin (CUR)

| Probe solubility in solvent [1] | Ra [3, 5] | δ difference [3, 6] | Ra ([3]; HSP distance between solvent and rhodamine B) | δ difference ([3]; total δ of solvent minus total δ of rhodamine B) | Structure (SMILES) | Solvent solubility in water [2] | Volatility/Boiling point [2] | Dispersion δD [4] | Hydrogen bonding δH [4] | Polarity δH [4] | Total δ [4] | Flash point [2] | Viscosity [2] |
| --- | --- | --- | --- | --- | --- | --- | --- | --- | --- | --- | --- | --- | --- |
| Insoluble | 15.204 (MPa)^1/2 | −7.679 (MPa)^1/2 | – | – | CCCCCC [n-Hexane] | Insoluble | 69 °C | – | – | – | – | – | – |
| Soluble (0.01-0.1% is soluble) | 3.753 (MPa)^1/2 | −2.022 (MPa)^1/2 | 14.205 (MPa)^1/2 | −9.896 (MPa)^1/2 | CCCCCCCCO [n-Octanol] | Insoluble | 195 °C | 16 (MPa)^1/2 | 11.9 (MPa)^1/2 | 5 (MPa)^1/2 | 20.557 (MPa)^1/2 | 81 °C | 8.93 mPa · s |
| Soluble (0.01-0.1% is soluble) | 6.580 (MPa)^1/2 | 4.118 (MPa)^1/2 | – | – | OCCCCCO [1,5-Pentanediol] | – | 242 °C | – | – | – | – | 129 °C | 128 mPa · s |
